According to US9073900B2, “Dihydroquinone derivatives of piperidine and piperazine” (KING FAHD UNIVERSITY OF PETROLEUM AND MINERALS, priority 2013, dated 2015):

Row | melting point [°C] | Compound
1 | 160 to 161 | O=C1NCc2ccc(C3CCN(Cc4ccc(-c5ccc(F)cc5)cc4)CC3)cc2N1 [Compound 6b, 7-(1-((4′-fluorobiphenyl-4-yl)methyl)piperidin-4-yl)-3,4-dihydroquinazolin-2(1H)-one]
2 | 166 to 167 | O=C1NCc2ccc(C3CCN(Cc4cncc(C5=CCCC5)c4)CC3)cc2N1 [Compound 6f, 7-(1-((5-cyclopentenylpyridin-3-yl)methyl)piperidin-4-yl)-3,4-dihydroquinazolin-2(1H)-one]

Further lines, the compound ahead of its results:

Row | Compound | melting point [°C]
3 | O=C1NCc2ccc(N3CCN(Cc4ccc(-c5ccccc5)cc4)CC3)cc2N1 [Compound 5a, 7-(4-(biphenyl-4-ylmethyl)piperazin-1-yl)-3,4-dihydroquinazolin-2(1H)-one] | 134 to 135
4 | O=C1NCc2ccc(N3CCN(Cc4ccc(-c5ccc(F)cc5)cc4)CC3)cc2N1 [Compound 5b, 7-(4-((4′-fluorobiphenyl-4-yl)methyl)piperazin-1-yl)-3,4-dihydroquinazolin-2(1H)-one] | 220 to 221
5 | O=C1NCc2ccc(N3CCN(Cc4cncc(-c5ccc(F)cc5)c4)CC3)cc2N1 [Compound 5d, 7-(4-((5-(4-fluorophenyl)pyridin-3-yl)methyl)piperazin-1-yl)-3,4-dihydroquinazolin-2(1H)-one] | 180 to 181
6 | O=C1NCc2ccc(N3CCN(Cc4cncc(C5=CCCC5)c4)CC3)cc2N1 [Compound 5f, 7-(4((5-cyclopentenylpyridin-3-yl)methyl)piperazin-1-yl)-3,4-dihydroquinazolin-2(1H)-one] | 185 to 186
